The values below come from publication PMC6943619, “Synthesis and Pharmacological Evaluation of Hybrids Targeting Opioid and Neurokinin Receptors” (Molecules, 2019).

Series [1] has as its target T1, human opioid receptor MOR (Homo sapiens, UniProt P35372).
T1 construct: purchased PerkinElmer (Krakow, Poland); host or cells: CHO cell membranes
The experiment in a line: Radioligand binding assay, displacement of [3H]DAMGO. To be noted: displacement of [3H]DAMGO from membranes of CHO cells transfected with human MOR, 50 mM Tris/HCl pH 7.4, 0.5% BSA, peptidase inhibitors, 2 h at 25 °C, mean ± SEM, n ≥ 3. The method, then:
(§1) A radioligand binding assay was performed to determine the opioid receptor (OR) binding affinities of the novel analogs using commercially available membranes of Chinese hamster ovary cells (CHO) transfected with human recombinant ORs. [^3H]DAMGO, [^3H]deltorphin-2, and [^3H]U-69593 were used as the radioligands for MOR, DOR, and KOR, respectively. Tyr-[D-Lys-Phe-Phe-Asp]NH2 (1) was used as a reference opioid compound. […] None of them acquired significant DOR affinity.
(§2) To determine the affinity of peptide analogs to respective receptors, competition binding experiments were performed, as described in detail elsewhere.
(§3) Commercial membranes of CHO cells stably expressing either human ORs or NK1 receptor were used. [^3H]DAMGO, [^3H]deltorphin-2, and [^3H]U-69593 were employed as the competing radioligands for MOR, DOR, and KOR, respectively, while [^3H][Sar^9, Met(O2)^11]SP was utilized for the NK1 receptor. Membranes were incubated in a 0.5 mL volume of 50 mM Tris/HCl (pH = 7.4), 0.5% bovine serum albumin (BSA), with a number of peptidase inhibitors (bacitracin, bestatin, captopril) and various concentrations of radioligands for 2 h at 25 °C. Nonspecific binding was assessed in the presence of […] naloxone for ORs or SP for NK1 receptor.
(§4) The pharmacological terminology adopted in this paper is consistent with International Union of Basic and Clinical Pharmacology (IUPHAR) recommendations. Concentration–response curves were analyzed by nonlinear regression using Graph Pad Prism 6.0 (La Jolla, CA, USA). […]. […] Concentration–response curves were fitted with the four-parameter logistic nonlinear regression model (1) Effect=baseline+Emax−baseline/1+10^logEC50−X·n where X is the agonist concentration and n is the Hill coefficient. Ligand efficacy was expressed as intrinsic activity (α) calculated as a ratio of the peptide Emax to the Emax of the standard agonist (Supplementary Materials, Figure S7). […]. All statistical analyses were performed using Graph Pad Prism 6.0 (La Jolla, CA, USA). Differences between groups were analyzed with one-way ANOVA and a post hoc multiple comparison by the Student–Newman–Keuls test. A probability level of 0.05 or smaller was used to indicate statistical significance.

For series [2], the target named is T2, human opioid receptor DOR (Homo sapiens, UniProt P41143).
T2 construct: purchased PerkinElmer (Krakow, Poland); host or cells: CHO cell membranes
The experiment in a line: Radioligand binding assay, displacement of [3H]deltorphin-2. Conditions: displacement of [3H]deltorphin-2 from membranes of CHO cells transfected with human DOR, 50 mM Tris/HCl pH 7.4, 0.5% BSA, peptidase inhibitors, 2 h at 25 °C, mean ± SEM, n ≥ 3. The method, then: A radioligand binding assay was performed to determine the opioid receptor (OR) binding affinities of the novel analogs using commercially available membranes of Chinese hamster ovary cells (CHO) transfected with human recombinant ORs. […] Tyr-[D-Lys-Phe-Phe-Asp]NH2 (1) was used as a reference opioid compound.
as §2
(§5) Commercial membranes of CHO cells stably expressing either human ORs or NK1 receptor were used. […] Membranes were incubated in a 0.5 mL volume of 50 mM Tris/HCl (pH = 7.4), 0.5% bovine serum albumin (BSA), with a number of peptidase inhibitors (bacitracin, bestatin, captopril) and various concentrations of radioligands for 2 h at 25 °C.
(§6) The pharmacological terminology adopted in this paper is consistent with International Union of Basic and Clinical Pharmacology (IUPHAR) recommendations. Concentration–response curves were analyzed by nonlinear regression using Graph Pad Prism 6.0 (La Jolla, CA, USA). […] Concentration–response curves were fitted with the four-parameter logistic nonlinear regression model (1) Effect=baseline+Emax−baseline/1+10^logEC50−X·n where X is the agonist concentration and n is the Hill coefficient. Ligand efficacy was expressed as intrinsic activity (α) calculated as a ratio of the peptide Emax to the Emax of the standard agonist (Supplementary Materials, Figure S7). […] All statistical analyses were performed using Graph Pad Prism 6.0 (La Jolla, CA, USA). Differences between groups were analyzed with one-way ANOVA and a post hoc multiple comparison by the Student–Newman–Keuls test. A probability level of 0.05 or smaller was used to indicate statistical significance.

Series [3] has as its target T3, human opioid receptor KOR (Homo sapiens, UniProt P41145).
T3 construct: purchased PerkinElmer (Krakow, Poland); host or cells: CHO cell membranes
The series is described as follows: Radioligand binding assay, displacement of [3H]U-69593. To be noted: displacement of [3H]U-69593 from membranes of CHO cells transfected with human KOR, 50 mM Tris/HCl pH 7.4, 0.5% BSA, peptidase inhibitors, 2 h at 25 °C, mean ± SEM, n ≥ 3. The protocol: as §1, §2, §3, §4

The next series concerns the target T4, human MOR (Homo sapiens, UniProt P35372).
T4 construct: expressed in transfected cells; host or cells: CHO cells (University of Ferrara), co-expressing Gαqi5
The experiment in a line: Calcium mobilization functional assay, agonist mode. Format: cell-based. To be noted: CHO cells co-expressing human MOR and Gαqi5; Fluo-4 AM calcium signal; n = 5; read-out: MOR pEC50 (CL95%) (converted).

For another series, the target named is T5, DOR (Homo sapiens, UniProt P41143).
T5 construct: expressed in transfected cells; host or cells: CHO cells (University of Ferrara), co-expressing GαqG66Di5
Described as above. Type of series: cell-based. To be noted: CHO cells co-expressing DOR and GαqG66Di5; Fluo-4 AM calcium signal; n = 5.

The target of another series is T6, human KOR (Homo sapiens, UniProt P41145).
T6 construct: expressed in transfected cells; host or cells: CHO cells (University of Ferrara), co-expressing Gαqi5
The series is described as above. Type of series: cell-based. Conditions: CHO cells co-expressing human KOR and Gαqi5; Fluo-4 AM calcium signal; n = 5; read-out: KOR pEC50 (CL95%) (converted).

The next series has as its system mice. The experiment in a line: Stool collection (stool mass, stool water content). Type of series: in vivo. To be noted: repeated i.p. injections 5 mg/kg, stool collected 90 min after injection on Days 1–6, compared to control group, n = 10. The method, then: In order to determine the influence of prolonged administration of the tested compounds on gastrointestinal passage, stool was collected for six days from mice used in the tolerance development test.
Figure 5 Effect of repeated i.p. injections of saline and the tested peptides on stool mass (A), stool water content (B), food intake (C), and water consumption (D). The data represent mean ± SEM, n = 10. Statistical significance was assessed using one-way ANOVA and a post hoc multiple comparison by the Student–Newman–Keuls test. *** p < 0.001, as compared to control.
After the i.p. injections of saline or peptides (Days 1–6), mice were placed in a separate clean cages and stool was collected for a period of 90 min. Fecal pellets were collected immediately after expulsion to avoid evaporation and placed in closed 1.5 mL tubes. Tubes were weighed to obtain the wet weight of the stool. Then, the tubes were opened and stool was dried overnight at 65 °C and reweighed to obtain the dry weight. The stool water content was calculated from the difference between the wet and dry stool weights.

The conditions of series [4]: cited from earlier work. The source says:
Here, we report on the synthesis and the initial pharmacological testing of several hybrid peptides with opioid agonist/NK1 antagonist and opioid agonist/NK1 agonist profiles. We performed structure affinity/activity relationship studies, seeking hybrids that could simultaneously and potently bind opioid and NK1 receptors. Both types of hybrids were designed with the same opioid fragment to make the comparison of their activity easier. It was already documented in the literature that simultaneous activation of both MOR and KOR intensifies the analgesic effect of pure MOR agonists. There ...

The target of a further series is human NK1 (Homo sapiens, UniProt P25103). The series is described as follows: Radioligand binding assay, displacement of [3H][Sar9, Met(O2)11]SP. Conditions: displacement of [3H][Sar9, Met(O2)11]SP from membranes of CHO cells transfected with human NK1 receptor; 50 mM Tris/HCl pH 7.4, 0.5% BSA, peptidase inhibitors, 2 h at 25 °C; mean ± SEM, n ≥ 3. More on the design: purchased PerkinElmer (Krakow, Poland); host or cells: CHO cell membranes. The method, then: The binding assay was also used to examine the affinity of the synthesized hybrids for NK1 in commercial membranes of CHO cells stably expressing human NK1.
as §2, §5, §6

Where a SMILES comes first, the peptide text is derived from it. Bridges are numbered along the chain shown (N, C = ends). [ ]: non-standard residue; d: D form.

T3 sequence (P41145 whole entry): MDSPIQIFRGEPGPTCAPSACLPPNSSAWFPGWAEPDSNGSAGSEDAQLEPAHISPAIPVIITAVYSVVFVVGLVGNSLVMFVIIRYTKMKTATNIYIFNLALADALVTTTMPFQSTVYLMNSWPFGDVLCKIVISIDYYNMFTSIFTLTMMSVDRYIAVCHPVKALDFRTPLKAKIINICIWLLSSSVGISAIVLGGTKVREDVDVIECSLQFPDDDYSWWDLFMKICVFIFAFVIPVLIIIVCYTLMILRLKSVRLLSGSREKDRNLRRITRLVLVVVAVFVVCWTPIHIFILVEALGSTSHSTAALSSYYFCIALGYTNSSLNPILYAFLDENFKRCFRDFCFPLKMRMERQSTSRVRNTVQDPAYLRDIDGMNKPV
T6 sequence (P41145 whole entry): as above
T4 sequence (P35372 whole entry): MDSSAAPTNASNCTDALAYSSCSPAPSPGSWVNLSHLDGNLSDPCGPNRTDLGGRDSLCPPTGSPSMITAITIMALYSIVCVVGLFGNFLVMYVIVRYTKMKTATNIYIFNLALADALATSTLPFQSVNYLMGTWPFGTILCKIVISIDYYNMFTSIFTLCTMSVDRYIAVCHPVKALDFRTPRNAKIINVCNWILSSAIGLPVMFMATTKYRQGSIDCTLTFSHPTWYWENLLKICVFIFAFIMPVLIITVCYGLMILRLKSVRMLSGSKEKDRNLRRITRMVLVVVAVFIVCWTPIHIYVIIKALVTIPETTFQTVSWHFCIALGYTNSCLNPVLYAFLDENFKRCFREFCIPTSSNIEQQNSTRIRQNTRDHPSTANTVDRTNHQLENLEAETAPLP
T1 sequence (P35372 whole entry): as above
T2 sequence (P41143 whole entry): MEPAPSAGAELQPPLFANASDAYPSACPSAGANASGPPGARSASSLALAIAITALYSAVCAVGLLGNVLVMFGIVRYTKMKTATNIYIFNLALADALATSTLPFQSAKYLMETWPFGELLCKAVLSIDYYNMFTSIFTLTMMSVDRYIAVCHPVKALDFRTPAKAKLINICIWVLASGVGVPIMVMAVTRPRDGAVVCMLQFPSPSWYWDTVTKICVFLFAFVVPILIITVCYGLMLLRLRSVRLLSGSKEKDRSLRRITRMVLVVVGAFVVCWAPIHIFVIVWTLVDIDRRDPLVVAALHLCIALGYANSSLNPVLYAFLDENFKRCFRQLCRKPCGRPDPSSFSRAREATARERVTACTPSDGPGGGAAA
T5 sequence (P41143 whole entry): as above
Chain of human NK1 (P25103 whole entry): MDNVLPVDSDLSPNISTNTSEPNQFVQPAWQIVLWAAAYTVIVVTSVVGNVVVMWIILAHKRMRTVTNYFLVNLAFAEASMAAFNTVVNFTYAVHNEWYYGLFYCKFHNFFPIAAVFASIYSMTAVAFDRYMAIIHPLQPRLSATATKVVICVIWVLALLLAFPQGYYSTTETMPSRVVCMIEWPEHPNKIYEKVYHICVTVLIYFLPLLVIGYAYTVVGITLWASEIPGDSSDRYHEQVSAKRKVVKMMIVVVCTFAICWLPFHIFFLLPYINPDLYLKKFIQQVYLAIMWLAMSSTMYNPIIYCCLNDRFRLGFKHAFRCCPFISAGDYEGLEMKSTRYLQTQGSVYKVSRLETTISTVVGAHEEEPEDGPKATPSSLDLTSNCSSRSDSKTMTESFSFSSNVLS

In the case of `NC(=O)[C@@H]1CC(=O)NCCCC[C@@H](NC(=O)[C@@H](N)Cc2ccc(O)cc2)C(=O)N[C@@H](Cc2ccccc2)C(=O)N[C@@H](Cc2ccccc2)C(=O)N1` [compound 1, Tyr-c[D-Lys-Phe-Phe-Asp]NH2] (H-Y[dK]FFD-NH2; lactam 2-5), the inhibition constant Ki in series [1] came to 0.35 ± 0.02 nM; in series [2], 171 ± 3.5 nM; in [3], 1.12 ± 0.2 nM. Besides, the EC50 on human MOR is 1.05 nM; on human KOR, 2.19 nM. Also, the “DOR pEC50 (CL95%)” value at DOR was “Crc incomplete”. In addition, the “stool mass (constipation)” value with mice is listed as “serious constipation”. Further, the enzymatic stability entry in [4] is recorded as “very good enzymatic stability”. The “Ki NK1” value on human NK1 was “Inactive”.
